# Experimental data published in patent publication US6838416B2, “Herbicidal 5-benzyloxymethyl-1,2-isoxazoline derivatives” (Korea Research Institute of Chemical Technology, priority 2000, dated 2005).
# Experiments:
# Conditions in all cases: three weeks after application, 0 untreated control, 100 complete kill
# ECHOR (seed) = assay: Assay for herbicidal activity, paddy pots: ECHOR; format: in vivo, Echinochloa crus-galli var. oryzicola
# From the text: (§1) To evaluate herbicidal activity against the paddy weeds in the paddy rice (ORYSA: Oryza sativa L.), the herbicidal activity of the compounds of the invention was compared to that of the compound No.109 (compound A) disclosed in U.S. Pat. […] The paddy weeds tested were ECHOR (Echinochloa crus-galli var. oryzicola), SCPJU (Scirpus juncoides ROXB), MOOVA (Monochoria vaginalis […] (Cyperus serotinus ROTTB), and SAGPY (Sagittaria pygmaea MTQ). The vessels employed were plastic pots having an area of 140 cm^2 and filled with a sandy loam soil containing 1.2% organic matter (pH 6).
# SCPJU (seed) = assay: Assay for herbicidal activity, paddy pots: SCPJU; format: in vivo, Scirpus juncoides ROXB
# From the text: as §1
# MOOVA (seed) = assay: Assay for herbicidal activity, paddy pots: MOOVA; format: in vivo, Monochoria vaginalis PRESL
# From the text: as §1
# CYPSE (tuber) = assay: Assay for herbicidal activity, paddy pots: CYPSE; format: in vivo, Cyperus serotinus ROTTB
# From the text: as §1
# SAGPY (tuber) = assay: Assay for herbicidal activity, paddy pots: SAGPY; format: in vivo, Sagittaria pygmaea MTQ
# From the text: as §1
Structure (SMILES),"ECHOR (seed) herbicidal activity, visual percentage grading (ECHOR (seed); 0.016 kg/ha)","ECHOR (seed) herbicidal activity, visual percentage grading (ECHOR (seed); 0.063 kg/ha)","ECHOR (seed) herbicidal activity, visual percentage grading (ECHOR (seed); 0.250 kg/ha)","ECHOR (seed) herbicidal activity, visual percentage grading (ECHOR (seed); 1.000 kg/ha)","ECHOR (seed) herbicidal activity, visual percentage grading (ECHOR (seed); 4.000 kg/ha)","SCPJU (seed) herbicidal activity, visual percentage grading (SCPJU (seed); 0.016 kg/ha)","SCPJU (seed) herbicidal activity, visual percentage grading (SCPJU (seed); 0.063 kg/ha)","SCPJU (seed) herbicidal activity, visual percentage grading (SCPJU (seed); 0.250 kg/ha)","SCPJU (seed) herbicidal activity, visual percentage grading (SCPJU (seed); 1.000 kg/ha)","SCPJU (seed) herbicidal activity, visual percentage grading (SCPJU (seed); 4.000 kg/ha)","MOOVA (seed) herbicidal activity, visual percentage grading (MOOVA (seed); 0.016 kg/ha)","MOOVA (seed) herbicidal activity, visual percentage grading (MOOVA (seed); 0.063 kg/ha)","MOOVA (seed) herbicidal activity, visual percentage grading (MOOVA (seed); 0.250 kg/ha)","MOOVA (seed) herbicidal activity, visual percentage grading (MOOVA (seed); 1.000 kg/ha)","MOOVA (seed) herbicidal activity, visual percentage grading (MOOVA (seed); 4.000 kg/ha)","CYPSE (tuber) herbicidal activity, visual percentage grading (CYPSE (tuber); 0.016 kg/ha)","CYPSE (tuber) herbicidal activity, visual percentage grading (CYPSE (tuber); 0.063 kg/ha)","CYPSE (tuber) herbicidal activity, visual percentage grading (CYPSE (tuber); 0.250 kg/ha)","CYPSE (tuber) herbicidal activity, visual percentage grading (CYPSE (tuber); 1.000 kg/ha)","CYPSE (tuber) herbicidal activity, visual percentage grading (CYPSE (tuber); 4.000 kg/ha)",other results
"Cc1ccc(C2=NOC(C)(COCc3cccc(F)c3)C2)s1 (stereo not drawn) [EXAMPLE 3, 5-(3-fluorobenzyl)oxymethyl-5-methyl-3-(2-methylthiophene-5-yl)-1,2-isoxazoline]",20%,55%,100%,100%,100%,0%,20%,40%,60%,100%,20%,50%,60%,80%,100%,0%,40%,90%,100%,100%,"SAGPY (tuber) herbicidal activity, visual percentage grading (SAGPY (tuber); 0.016 kg/ha): 0%; SAGPY (tuber) herbicidal activity, visual percentage grading (SAGPY (tuber); 0.063 kg/ha): 0%; SAGPY (tuber) herbicidal activity, visual percentage grading (SAGPY (tuber); 0.250 kg/ha): 0%; SAGPY (tuber) herbicidal activity, visual percentage grading (SAGPY (tuber); 1.000 kg/ha): 50%; SAGPY (tuber) herbicidal activity, visual percentage grading (SAGPY (tuber); 4.000 kg/ha): 40%"
"Cc1cc(C)c(C2=NOC(C)(COCc3ccccc3F)C2)s1 (stereo not drawn) [EXAMPLE 13, 5-(2-fluorobenzyl)oxymethyl-5-methyl-3-(2,4-dimethylthiophene-5-yl)-1,2-isoxazoline]",50%,70%,100%,100%,100%,30%,30%,70%,90%,100%,50%,70%,80%,90%,100%,0%,0%,90%,100%,100%,"SAGPY (tuber) herbicidal activity, visual percentage grading (SAGPY (tuber); 0.016 kg/ha): 0%; SAGPY (tuber) herbicidal activity, visual percentage grading (SAGPY (tuber); 0.063 kg/ha): 0%; SAGPY (tuber) herbicidal activity, visual percentage grading (SAGPY (tuber); 0.250 kg/ha): 0%; SAGPY (tuber) herbicidal activity, visual percentage grading (SAGPY (tuber); 1.000 kg/ha): 0%; SAGPY (tuber) herbicidal activity, visual percentage grading (SAGPY (tuber); 4.000 kg/ha): 30%"
"COc1ccsc1C1=NOC(C)(COCc2c(F)cccc2F)C1 (stereo not drawn) [EXAMPLE 21, 5-(2,6-difluorobenzyl)oxymethyl-5-methyl-3-(4-methoxythiophene-5-yl)-1,2-isoxazoline]",0%,100%,100%,100%,100%,0%,100%,100%,100%,100%,0%,100%,100%,100%,100%,0%,40%,60%,80%,100%,"SAGPY (tuber) herbicidal activity, visual percentage grading (SAGPY (tuber); 0.016 kg/ha): 0%; SAGPY (tuber) herbicidal activity, visual percentage grading (SAGPY (tuber); 0.063 kg/ha): 0%; SAGPY (tuber) herbicidal activity, visual percentage grading (SAGPY (tuber); 0.250 kg/ha): 0%; SAGPY (tuber) herbicidal activity, visual percentage grading (SAGPY (tuber); 1.000 kg/ha): 0%; SAGPY (tuber) herbicidal activity, visual percentage grading (SAGPY (tuber); 4.000 kg/ha): 0%"
"Cc1cc(C)c(C2=NOC(C)(COCc3c(F)cccc3F)C2)s1 (stereo not drawn) [EXAMPLE 15, 5-(2,6-difluorobenzyl)oxymethyl-5-methyl-3-(2,4-dimethylthiophene-5-yl)-1,2-isoxazoline]",40%,100%,100%,100%,100%,20%,50%,100%,100%,100%,90%,100%,100%,100%,100%,0%,0%,70%,100%,100%,"SAGPY (tuber) herbicidal activity, visual percentage grading (SAGPY (tuber); 0.016 kg/ha): 0%; SAGPY (tuber) herbicidal activity, visual percentage grading (SAGPY (tuber); 0.063 kg/ha): 0%; SAGPY (tuber) herbicidal activity, visual percentage grading (SAGPY (tuber); 0.250 kg/ha): 20%; SAGPY (tuber) herbicidal activity, visual percentage grading (SAGPY (tuber); 1.000 kg/ha): 40%; SAGPY (tuber) herbicidal activity, visual percentage grading (SAGPY (tuber); 4.000 kg/ha): 70%"
"CC1(COCc2c(F)cccc2F)CC(c2ccc([N+](=O)[O-])s2)=NO1 (stereo not drawn) [EXAMPLE 23, 5-(2,6-difluorobenzyl)oxymethyl-5-methyl-3-(2-nitrothiophene-5-yl)-1,2-isoxazoline]",0%,30%,100%,100%,100%,0%,0%,0%,0%,100%,0%,50%,70%,100%,100%,0%,0%,50%,80%,100%,"SAGPY (tuber) herbicidal activity, visual percentage grading (SAGPY (tuber); 0.016 kg/ha): 0%; SAGPY (tuber) herbicidal activity, visual percentage grading (SAGPY (tuber); 0.063 kg/ha): 0%; SAGPY (tuber) herbicidal activity, visual percentage grading (SAGPY (tuber); 0.250 kg/ha): 0%; SAGPY (tuber) herbicidal activity, visual percentage grading (SAGPY (tuber); 1.000 kg/ha): 0%; SAGPY (tuber) herbicidal activity, visual percentage grading (SAGPY (tuber); 4.000 kg/ha): 0%"
"Cc1ccsc1C1=NOC(C)(COCc2ccccc2)C1 (stereo not drawn) [EXAMPLE 5, 5-benzyloxymethyl-5-methyl-3-(4-methylthiophene-5-yl)-1,2-isoxazoline]",0%,30%,100%,100%,100%,0%,10%,30%,60%,100%,0%,10%,80%,90%,100%,0%,0%,30%,100%,100%,"SAGPY (tuber) herbicidal activity, visual percentage grading (SAGPY (tuber); 0.016 kg/ha): 0%; SAGPY (tuber) herbicidal activity, visual percentage grading (SAGPY (tuber); 0.063 kg/ha): 0%; SAGPY (tuber) herbicidal activity, visual percentage grading (SAGPY (tuber); 0.250 kg/ha): 20%; SAGPY (tuber) herbicidal activity, visual percentage grading (SAGPY (tuber); 1.000 kg/ha): 50%; SAGPY (tuber) herbicidal activity, visual percentage grading (SAGPY (tuber); 4.000 kg/ha): 70%"
